Data from article PMC8166343 (Biochemical Journal, 2021).

Legend:
TAF3 PHD finger = assay type: binding
ING3 PHD finger = assay type: binding
ING3 PHD = assay type: binding; conditions: 1 h, 4°C; pH 7.5
SPIN1 TUDOR = assay type: binding; conditions: 1 h, 4°C; pH 7.5
PHF2 PHD finger = assay type: binding
KDM7A PHD finger = assay type: binding
PHF23 PHD finger = assay type: binding
PHF2 PHD = assay type: binding; conditions: 1 h, 4°C; pH 7.5
endogenous PHF2 = assay type: binding; conditions: 1 h, 4°C
endogenous SPIN1 = assay type: binding; conditions: 1 h, 4°C
Set7/9 = assay type: biochemical; conditions: pH 8.5

Row | Substance | interaction with TAF3 PHD finger (TAF3 PHD finger) | interaction with ING3 PHD finger (ING3 PHD finger) | pull-down of GST-ING3 PHD (ING3 PHD) | pull-down of GST-SPIN1 TUDOR (SPIN1 TUDOR) | interaction with PHF2 PHD finger (PHF2 PHD finger) | interaction with KDM7A PHD finger (KDM7A PHD finger) | interaction with PHF23 PHD finger (PHF23 PHD finger) | pull-down of GST-PHF2 PHD (PHF2 PHD) | enrichment of endogenous PHF2 (endogenous PHF2) | enrichment of endogenous SPIN1 (endogenous SPIN1) | methylation by Set7/9 (Set7/9)
1 | PRRK(me3)QQAPRRSA-Biotin (PRRKQQAPRRSA) [TSHZ1 K4me3] | bound | bound | methylation-dependent interactions | interacted | – | – | – | – | – | – | –
2 | SRRK(me3)QGNPQHLS-Biotin [BCL11B K4me3] | interacted | – | – | interacted | interacted | interacted | selectively interacted | strongly interacted | very weakly | enriched | could not methylate
3 | VRTK(me3)ADSVPGTY-Biotin [PCLAF K4me3] | – | – | – | – | – | only recognized KDM7A | – | – | – | – | –
